Data as given in article PMC12040169 (PLOS Biology, 2025).

Assay: in vitro
Conditions: human, hela cells, % viability

First: COc1cccc(C2C(C(=O)c3ccc(C)o3)=C(O)C(=O)N2CCN2CCOCC2)c1 (stereo not shown) [CBK264899]
Second: COc1cccc(C2C(C(=O)c3ccc(Cl)cc3)=C(O)C(=O)N2CCN2CCOCC2)c1 (stereo not shown) [CBK264901]
The viability at 28.5 h, 10 µM of the first is higher: 92.8% for the first, 90% for the second.

Compared with CC(C)CNC(=O)C(=O)NCCc1ccc(F)cc1 [CBK264903], O=C(NCCCNc1c(Cl)cccc1[N+](=O)[O-])c1ccc(F)cc1 [CBK264943] is lower in viability at 28.5 h, 10 µM: 105% for the first, 99.4% for the second.

Compared with O=C(COc1ccc(Cl)cc1Cl)OCCNC1=NS(=O)(=O)c2ccccc21 [CBK264905], Cc1ccc(S(=O)(=O)Nc2nc(C)c(NC(=O)Nc3ccc(Cl)cc3Cl)s2)cc1 [CBK264982] is lower in viability at 28.5 h, 10 µM: 110% for the first, 85.8% for the second.

First: CC(C)Oc1ccc(C(=O)C2=C(O)C(=O)N(CCN(C)C)C2c2ccncc2)cc1 (stereo not shown) [CBK264907]
Second: COc1cccc(C2C(C(=O)c3ccc(Br)cc3)=C(O)C(=O)N2CCCN(C)C)c1 (stereo not shown) [CBK264921]
The viability at 28.5 h, 10 µM of the first is higher: 90.3% for the first, 84.5% for the second.

First: COc1cc(C(=O)Oc2cccc(Nc3ncnc4ccccc34)c2)cc(OC)c1OC [CBK264908]
Second: COc1ccc(-c2nc3cc(NC(=O)c4ccccc4Br)ccc3o2)cc1 [CBK264953]
The viability at 28.5 h, 10 µM of the first is higher: 109% for the first, 95.5% for the second.

Going from O=C(NCN1CCN(c2ccc([N+](=O)[O-])cc2)CC1)c1cccnc1 [CBK264909] to O=C(O)c1ccc(N2CCN(CCO)CC2)c([N+](=O)[O-])c1 [CBK264911C], the viability at 28.5 h, 10 µM falls from 106% to 100%.

Compared with Cc1cccc(CN(CC(=O)Nc2ccc3c(c2)OCCO3)S(=O)(=O)c2ccc(Cl)cc2)c1 [CBK264910], CC1CCN(S(=O)(=O)c2ccc(NC(=O)COc3ccc4ccccc4c3)cc2)CC1 [CBK264969] is higher in viability at 28.5 h, 10 µM: 91.9% for the first, 96.7% for the second.

Going from COc1cccc(-c2nc(SCC(=O)Nc3ccc([N+](=O)[O-])cc3)[nH]c(=O)c2C#N)c1 [CBK264912] to Nc1cc(=O)[nH]c(SCC(=O)Nc2ccc(S(N)(=O)=O)cc2)n1 [CBK265021], the viability at 28.5 h, 10 µM falls from 105% to 91.2%.

Compared with O=[N+]([O-])c1ccc(NC(=S)NCCCn2ccnc2)cc1 [CBK264915], CC1CCN(S(=O)(=O)c2ccc(NC(=O)COc3ccc([N+](=O)[O-])cc3)cc2)CC1 [CBK264994] is higher in viability at 28.5 h, 10 µM: 93.3% for the first, 95.4% for the second.

First: O=C(CSCc1ccccc1)Nc1ccc2c3c(cccc13)CC2 [CBK264916]
Second: O=C1c2ccccc2CN1CCNS(=O)(=O)c1ccc2oc3ccccc3c2c1 [CBK264918]
The viability at 28.5 h, 10 µM of the first is higher: 107% for the first, 98.9% for the second.

Going from Cc1cccc(NC(=S)N2CCN(Cc3ccc4c(c3)OCO4)CC2)c1C [CBK264919] to O=c1oc2c(CN3CCN(CCO)CC3)c(O)ccc2cc1-c1nc(-c2ccc(Br)cc2)cs1 [CBK264949], the viability at 28.5 h, 10 µM rises from 82.7% to 103%.

Going from O=C(Oc1ccc(F)cc1C(=O)/C=C/c1cccs1)c1ccc([N+](=O)[O-])cc1 [CBK264925] to O=C(/C=C/c1ccc([N+](=O)[O-])cc1)c1ccc(O)c(O)c1 [CBK265028], the viability at 28.5 h, 10 µM rises from 91.2% to 105%.

First: S=C(NCCc1ccccc1)NCCN1CCOCC1 [CBK264929]
Second: COc1ccc(CCNC(=O)C2CCN(S(=O)(=O)c3ccccc3)CC2)cc1 [CBK264985]
The viability at 28.5 h, 10 µM of the first is lower: 87.4% for the first, 95% for the second.

First: O=C(NC(=S)Nc1ccc(-c2nc3ccccc3o2)c(O)c1)c1cncc(Br)c1 [CBK264931]
Second: O=C(O)c1cccc(NC(=S)NC(=O)c2ccc(-c3ccc(Br)cc3)o2)c1 [CBK265014]
The viability at 28.5 h, 10 µM of the first is higher: 97% for the first, 95.6% for the second.

Compared with O=C(C1=C(O)C(=O)N(c2ncccn2)C1c1cccc([N+](=O)[O-])c1)c1ccc(F)cc1 (stereo not shown) [CBK264932], Cn1c(Cc2ccccc2)nnc1Sc1ccc(C(=O)O)cc1[N+](=O)[O-] [CBK265038] is higher in viability at 28.5 h, 10 µM: 85.2% for the first, 99.6% for the second.

Compared with CCc1cccc2c(/C=C3/SC(=S)N(CC(=O)O)C3=O)c[nH]c12 [CBK264937], C=CCOc1ccc(-c2nn(-c3ccccc3)cc2/C=C2/SC(=S)N(CC(=O)O)C2=O)c(C)c1 [CBK265062] is higher in viability at 28.5 h, 10 µM: 94% for the first, 95.8% for the second.

First: Cc1[nH]nc(-c2ccc(OCc3cnn(-c4ccccc4)c3)cc2O)c1Oc1ccc(Cl)cc1 [CBK264939]
Second: COc1ccc(-c2c(-c3ccc(OCc4cnn(-c5ccccc5)c4)c(C)c3O)n[nH]c2C)cc1 [CBK265006]
The viability at 28.5 h, 10 µM of the first is lower: 86.8% for the first, 92.5% for the second.

First: CCOC(=O)CC(=O)CSc1nc(N)c2c3c(sc2n1)CCCC3 [CBK264942]
Second: CCOC(=O)c1c(NC(=O)C2CCCN2S(=O)(=O)c2ccccc2)sc2c1CCCC2 (stereo not shown) [CBK265012]
The viability at 28.5 h, 10 µM of the first is higher: 120% for the first, 92% for the second.

First: CC(=O)Nc1ccc(S(=O)(=O)N2CCN(c3ccc([N+](=O)[O-])cc3C(F)(F)F)CC2)cc1 [CBK264944]
Second: Cc1ccc(S(=O)(=O)NCCNc2ccc(C(F)(F)F)cc2[N+](=O)[O-])cc1 [CBK264945]
The viability at 28.5 h, 10 µM of the first is higher: 112% for the first, 90.4% for the second.

Going from Cc1ccc(OCC(=O)NC(=S)Nc2cc(C(=O)O)ccc2C)cc1C [CBK264955] to Cc1ccc(OCC(=O)NC(=S)Nc2cc(C(=O)O)ccc2C)cc1 [CBK265000], the viability at 28.5 h, 10 µM rises from 92.8% to 96.8%.

Going from COc1cc(C2NC(=O)NC(O)(C(F)(F)F)C2C(=O)c2ccccc2)ccc1OCc1ccccc1 (stereo not shown) [CBK264957] to CCN(Cc1ccccc1)c1ccc(C2NC(=O)NC(O)(C(F)(F)F)C2C(=O)c2cccnc2)cc1 (stereo not shown) [CBK264999], the viability at 28.5 h, 10 µM falls from 114% to 91.7%.

Compared with NS(=O)(=O)c1ccc(NS(=O)(=O)c2ccc(NC(=O)C3CC3)cc2)cc1 [CBK264958], CN(C)S(=O)(=O)c1ccc(C(=O)Nc2ccc(-c3ccccc3)cc2)cc1 [CBK264978] is lower in viability at 28.5 h, 10 µM: 103% for the first, 96.2% for the second.

O=C(O)c1ccccc1NC(=S)NC(=O)c1ccccc1[N+](=O)[O-] [CBK264963] and O=C(NC(=S)Nc1ccccc1C(=O)O)c1ccc(Cl)cc1 [CBK265044] are the same in viability at 28.5 h, 10 µM: 96.2% for the first, 96.2% for the second.

Going from Sc1nnc(COc2ccc(-c3ccccc3)cc2)n1-c1ccccc1 [CBK264964] to CC(=O)CSc1nnc(COc2ccc(C3CCCCC3)cc2)n1-c1ccccc1 [CBK265026], the viability at 28.5 h, 10 µM rises from 105% to 116%.

Compared with O=C(CC(C(=O)O)P(=O)(c1ccccc1)c1ccccc1)c1ccccc1 (stereo not shown) [CBK264971], Cc1ccc(C(=O)CC(C(=O)O)P(=O)(c2ccccc2)c2ccccc2)cc1 (stereo not shown) [CBK265022] is lower in viability at 28.5 h, 10 µM: 114% for the first, 90.1% for the second.

First: CN(C)c1nc(Oc2ccc(OCCOc3ccccc3)nn2)nc(N(C)C)n1 [CBK264976]
Second: CC(C)Nc1nc(NC(C)C)nc(Oc2ccc(C=O)cc2)n1 [CBK265043]
The viability at 28.5 h, 10 µM of the first is lower: 104% for the first, 111% for the second.

Compared with CC1(C(=O)O)NC(c2ccccc2O)C2C(=O)N(c3ccccc3[N+](=O)[O-])C(=O)C21 (stereo not shown) [CBK264979], Cn1c(SCc2c(Cl)cccc2[N+](=O)[O-])nnc1-c1ccc(NC(=O)c2ccccc2Cl)cc1 [CBK264983] is lower in viability at 28.5 h, 10 µM: 107% for the first, 81.1% for the second.

Compared with CCOC(=O)Cc1cc(O)nc(NC(=N)Nc2ccc(C)cc2C)n1 [CBK264986], COCCN(CCOC)Cc1c(C)nc2c(C)c(C)ccc2c1O [CBK265031] is lower in viability at 28.5 h, 10 µM: 104% for the first, 102% for the second.

Compared with O=c1c2ccccc2nc(CSc2[nH]cnc3ncnc2-3)n1-c1cccc(C(F)(F)F)c1 [CBK264991], Cn1c(SCc2cccc3ccccc23)nnc1-c1ccc(NC(=O)/C=C/c2ccccc2)cc1 [CBK265034] is higher in viability at 28.5 h, 10 µM: 105% for the first, 114% for the second.

Going from Cc1ccc(S(=O)(=O)Nc2ccccn2)c(C)c1C [CBK264995] to CN(C)S(=O)(=O)Nc1ccc(Cc2ccncc2)cc1 [CBK265011], the viability at 28.5 h, 10 µM rises from 90% to 115%.

Compared with Cc1ccc(C(=O)O)cc1NC(=S)NC(=O)c1ccc(-c2ccccc2)cc1 [CBK264997], O=C(O)c1cccc(NC(=S)NC(=O)C(c2ccccc2)c2ccccc2)c1 [CBK265053] is higher in viability at 28.5 h, 10 µM: 92.7% for the first, 107% for the second.

Compared with Cn1c(SCc2ccc([N+](=O)[O-])cc2)nnc1-c1ccc(NC(=O)c2ccccc2Cl)cc1 [CBK265001], Cc1ccc(NC(=O)CN2C(=O)N/C(=C\c3cc(Br)cc(Cl)c3O)C2=O)cc1 [CBK265018] is lower in viability at 28.5 h, 10 µM: 111% for the first, 98.7% for the second.

Compared with COC(=O)c1sc(NC(=O)c2cccnc2)c(C#N)c1C [CBK265007], COc1cccc(C(=O)NC(=S)Nc2ccc(C(=O)O)c(Cl)c2)c1 [CBK265065] is higher in viability at 28.5 h, 10 µM: 89.4% for the first, 103% for the second.

First: CC(C)(C)OC(=O)NCCC(=O)Oc1ccc2c3c(c(=O)oc2c1)CCCC3 [CBK265008]
Second: Cc1oc(C(C)(C)C)cc1C(=O)NCCNc1c(Cl)cccc1[N+](=O)[O-] [CBK265032]
The viability at 28.5 h, 10 µM of the first is lower: 89.3% for the first, 119% for the second.

Going from O=[N+]([O-])c1cc(-c2nc(-c3cccs3)c(-c3cccs3)[nH]2)ccc1Br [CBK265009] to Cc1n[nH]c(O)c1C(c1ccc(OC(=O)c2ccccc2)cc1)c1c(C)n[nH]c1O [CBK265019], the viability at 28.5 h, 10 µM rises from 102% to 109%.

Going from Nc1nc(-n2cnnc2)nn1-c1ccccc1 [CBK265015] to CC(C)c1ccc(/C=C/C(=O)NC(=S)Nc2cccc(C(=O)O)c2)cc1 [CBK265024], the viability at 28.5 h, 10 µM falls from 97.2% to 94.3%.

Compared with O=C(/C=C/c1ccccc1)N/C(=C/c1ccccc1)C(=O)Nc1ccc2ccccc2c1 [CBK265023], COc1ccccc1CN(CN1C(=O)c2ccccc2C1=O)CN1C(=O)c2ccccc2C1=O [CBK265039] is higher in viability at 28.5 h, 10 µM: 89.6% for the first, 94.9% for the second.

First: CC(C)CC12CN3CCN(CC(C3)/C1=N\N=C1/C3CN4CCN(C3)CC1(CC(C)C)C4)C2 [CBK265036]
Second: O=C(CN1CCOCC1)Nc1ccc(NC(=O)CN2CCOCC2)cc1 [CBK265045]
The viability at 28.5 h, 10 µM of the first is higher: 99.1% for the first, 95.9% for the second.

First: CCN(CC)CCNc1cc(C)nc2c1C(=O)C(=O)C=C2N1CCCCC1 [CBK265049]
Second: O=C(CN1CCCC1)Nc1sc2c(c1C(=O)Nc1ccc(Br)cc1)CCC2 [CBK265060]
The viability at 28.5 h, 10 µM of the first is lower: 89.5% for the first, 94.8% for the second.

First: CC1CCc2c(sc3ncnc(SC(C)C(=O)OC4CCCCC4)c23)C1 (stereo not shown) [CBK265050]
Second: COc1ccc(NC(=O)c2c(NC(=O)CN3CCCC(C)C3)sc3c2CCC3)cc1 (stereo not shown) [CBK265061]
The viability at 28.5 h, 10 µM of the first is higher: 104% for the first, 93.3% for the second.

In the case of NCCNCCCCOc1ccc(Cl)c(Cl)c1 [CBK265059], the viability at 28.5 h, 10 µM is reported as 109%.

Same assay, conditions: human, hela cells, % viability, bulk resorufin, single well

In the case of Cc1cccc(N2C(=O)NC(=O)C(CCc3ccncc3)(CCc3ccncc3)C2=O)c1 [CBK264898], the viability at 28.5 h, 10 µM is reported as 96.3%.
